In paper PMC7597670 (Bioorganic & medicinal chemistry letters, 2010):

Assays:
[1] = target: human CCR5 (Homo sapiens, UniProt P51681); type: cell-based; settings: versus the other three stereoisomers of the hydroxylated analog of 1
[2] = Pharmacokinetics after single oral and intravenous administration in rats; settings: for AUC / Cmax: rat, plasma, po, 10 mg/kg; for BA: rats, 10 mg/kg po vs 3 mg/kg iv
[3] = system: HIV-1MM (R5MDR); settings: read-out: Anti-HIV-1 activity IC50 HIV-1MM (R5MDR); inhibition of HIV p24 antigen expression in PBMC; multidrug-resistant
[4] = system: HIV-1Ba-L (R5); assay: Anti-HIV-1 activity: inhibition of HIV p24 antigen expression in PBMC, HIV-1Ba-L; type: cell-based; settings: read-out: Anti-HIV-1 activity IC50 HIV-1Ba-L (R5)

human CCR5, sequence (P51681 whole entry): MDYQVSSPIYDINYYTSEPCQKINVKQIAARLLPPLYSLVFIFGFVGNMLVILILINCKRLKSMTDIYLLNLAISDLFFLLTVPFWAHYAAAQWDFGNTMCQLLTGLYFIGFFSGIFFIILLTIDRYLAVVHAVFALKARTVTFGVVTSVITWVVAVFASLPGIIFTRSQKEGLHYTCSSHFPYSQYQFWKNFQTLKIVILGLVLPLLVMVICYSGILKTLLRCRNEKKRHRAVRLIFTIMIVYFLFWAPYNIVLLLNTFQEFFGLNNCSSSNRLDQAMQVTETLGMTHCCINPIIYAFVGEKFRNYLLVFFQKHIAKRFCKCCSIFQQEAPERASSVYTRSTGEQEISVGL

Compound | AUC [2] [ng·h/mL] | Cmax [2] [ng/mL] | BA [2] [%] | also measured
CCCCN1C(=O)[C@@H]([C@H](O)C(C)C)NC(=O)C12CCN(Cc1ccc(Oc3ccccc3)cc1)CC2.Cl [Compound 3] |  |  |  | fold higher potency than the other isomers in Ca assay [1]: 4.5-12 fold
CCCCN1C(=O)C(CC(C)C)NC(=O)C12CCN(Cc1ccc(Oc3ccccc3)cc1)CC2.Cl (stereo not drawn) [Compound 1] | 96.7 | 33.3 |  | 
CCCCN1C(=O)C(CC2CCCCC2)NC(=O)C12CCN(Cc1ccc(Oc3ccccc3)cc1)CC2.Cl (stereo not drawn) [Compound 2] | 24.8 | 5.6 | 1.9 | 
SCH-351125 |  |  |  | IC50 [3]: 3 ± 0.5 nM; IC50 [4]: 4 ± 2 nM
CCCCN1C(=O)[C@H](CC2CCCCC2)NC(=O)C12CCN(Cc1ccc(Oc3ccc(C(=O)O)cc3)cc1)CC2.Cl [Compound 5] |  |  | 34 | 
